The values that follow come from patent publication US6436978B1, “Guanidinylamino heterocycle compounds useful as α-2 adrenoceptor agonists” (The Procter & Gamble Co., priority 1996, dated 2002).

One experiment relates to patient with migraine. Put plainly: Oral tablet given to a patient with migraine. To be noted: Example K oral tablet, 4 mg per tablet, one tablet swallowed. In kind it is in vivo, human. An excerpt: One tablet is swallowed by a patient with migraine.
For experiment [1], the system named is human subject suffering from septic or cardiogenic shock. As to the kind of experiment: Intravenous solution given to a human subject suffering from septic or cardiogenic shock. In kind it is in vivo. To be noted: Example T solution 10 mg/ml carrier, approximately 2.0 ml intravenously. As for the experimental part: The above ingredients are mixed, forming a solution. Approximately 2.0 ml of the solution is administered, intravenously, to a human subject suffering from septic or cardiogenic shock.

For experiment [2], the system named is patient with nasal congestion. Put plainly: Composition given to a patient with nasal congestion. Format: in vivo, human. As for the experimental part:
One tablet is swallowed by a patient with nasal congestion.
One tablet is chewed and swallowed by a patient with nasal congestion.
One tablet is placed under the tongue of a patient with nasal congestion and allowed to dissolve.
One-tenth of a mL of the composition is sprayed from a pump actuator into each nostril of a patient with nasal congestion.
One-fifth of a mL of the composition is applied as drops from a dropper into each nostril of a patient with nasal congestion.
One 15 mL dose of the alcohol-free liquid medication is swallowed by a patient with nasal congestion.

For a further experiment, the system named is patient with glaucoma. Put plainly: Topical ophthalmic composition given to a patient with glaucoma, intraocular pressure. The settings on record: Example G topical ophthalmic composition 0.10 % w/v, one-tenth of a mL into each eye. In kind it is in vivo, human. The procedure:
One-tenth of a mL of the composition is administered directly into each eye of a patient with glaucoma.

Experiment [3] has as its system patient with nasal congestion and runny nose due to allergic rhinitis. As to the kind of experiment: Oral liquid given to a patient with nasal congestion and runny nose due to allergic rhinitis. In kind it is in vivo, human. To be noted: Example H oral liquid, 15 mg with chlorpheniramine maleate 4 mg per 15 mL dose, one dose swallowed. As for the experimental part: One 15 mL dose of the liquid composition is swallowed by a patient with nasal congestion and runny nose due to allergic rhinitis.

For the next experiment, the system named is patient with asthma. As to the kind of experiment: Inhalation aerosol given to a patient with asthma. In kind it is in vivo, human. To be noted: Example F inhalation aerosol 5.0 % w/v, two puffs from a metered-dose inhaler. From the text: Two-puffs of the aerosol composition is inhaled from a metered-dose inhaler by a patient with asthma.

As for `Cc1c(NNC(=N)N)ccc2cccnc12` [Example 1, [(8-Methylquinolin-7-yl)amino]guanidine], the “pain and aura of migraine” value in the experiment with patient with migraine is listed as “substantially diminished”. In experiment [1], the “symptoms of septic or cardiogenic shock” value is recorded as “symptoms subside”. Besides, the nasal congestion entry in experiment [2] (Example B chewable tablet, 15.0 mg per tablet, one tablet chewed and swallowed) is “substantially reduced”; in experiment [2] (Example D intranasal solution 0.20 % w/v, one-tenth of a mL sprayed into each nostril) it was “substantially diminished”; in experiment [2] (Example E intranasal gel 0.10 % w/v, one-fifth of a mL as drops into each nostril), “substantially reduced”. Besides, the intraocular pressure result in the experiment on patient with glaucoma is “substantially reduced”.
Regarding “[(4-Methylbenzimidazol-5-yl)amino]guanidine [Example 2]”, the “congestion and runny nose” value in experiment [3] is “effectively reduced”. The asthmatic condition entry with patient with asthma was “effectively relieved”. Moreover, the nasal congestion entry in experiment [2] (Example A oral tablet, 20.0 mg per tablet, one tablet swallowed) was “substantially diminished”; in experiment [2] (Example C sublingual tablet, 2.00 mg per tablet, one tablet under the tongue) it was “rapidly and substantially diminished”; in experiment [2] (Example J alcohol-free oral liquid, 30 mg per 15 mL dose, one dose swallowed), “substantially diminished”.
